Laboratory results as given in patent publication US7488730B2, “N-(1,2,3,4-tetrahydronaphthalen-1-yl)-4-phenyl-1-piperazinealkylamide derivatives, and therapeutic use thereof as 5-HT7 receptor ligands” (Universita Degli Studi Di Bari, priority 2005, dated 2009).

Tests used:
[1] = target: T1, rat cloned 5-HT7 receptor (Rattus norvegicus, UniProt P32305); assay: Radioligand binding assay ([3H]-LSD) at rat cloned 5-HT7Rs; details: for Ki: [3H]-LSD, rat recombinant 5-HT7R expressed in HEK-293 cells
T1 construct: purchased PerkinElmer-NEN; host or cells: HEK-293
T1 sequence (P32305 whole entry): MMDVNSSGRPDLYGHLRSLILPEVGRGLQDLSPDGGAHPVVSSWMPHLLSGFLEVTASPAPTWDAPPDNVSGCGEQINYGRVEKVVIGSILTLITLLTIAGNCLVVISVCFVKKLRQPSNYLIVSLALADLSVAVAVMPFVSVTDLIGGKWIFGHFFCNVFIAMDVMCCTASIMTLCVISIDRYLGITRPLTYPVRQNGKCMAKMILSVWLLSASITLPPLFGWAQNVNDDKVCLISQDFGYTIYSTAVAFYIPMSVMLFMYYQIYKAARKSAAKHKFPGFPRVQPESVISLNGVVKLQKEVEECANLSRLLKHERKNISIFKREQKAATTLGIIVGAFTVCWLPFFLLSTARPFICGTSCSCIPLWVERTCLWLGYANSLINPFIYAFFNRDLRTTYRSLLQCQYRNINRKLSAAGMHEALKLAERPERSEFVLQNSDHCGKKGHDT
Protocol: Rat recombinant serotonin 5-HT7R expressed in HEK-293 cells were purchased from PerkinElmer-NEN (Betsville, Md., USA).
Radioligand Binding Assay at Rat Cloned 5-HT7Rs. Binding of [^3H]-LSD at rat cloned 5-HT7 receptor was performed according to a known method. In 1 mL of incubation buffer (50 mM Tris, 10 mM MgCl2 and 0.5 mM EDTA, pH 7.4) were suspended 30 μg of membranes, 2.5 nM [^3H]-LSD, the drugs or reference compound (six to nine concentrations). The samples were incubated for 60 min at 37° C. The incubation was stopped by rapid filtration on GF/A glass fiber filters (pre-soaked in 0.5% polyethylenimine for 30 min). The filters were washed with 3 ? 3 mL of ice-cold buffer (50 mM Tris, pH 7.4). Nonspecific binding was determined in the presence of 10 μM 5-CT. Approximately 90% of specific binding was determined under these conditions.

5-HT1A receptors = target: T2, 5-HT1A receptors (Rattus norvegicus, UniProt P19327); details: for Ki: read-out: Ki, nM 5-HT1A, [3H]-8-OH-DPAT, rat hippocampal membranes
T2 sequence (P19327 1-422): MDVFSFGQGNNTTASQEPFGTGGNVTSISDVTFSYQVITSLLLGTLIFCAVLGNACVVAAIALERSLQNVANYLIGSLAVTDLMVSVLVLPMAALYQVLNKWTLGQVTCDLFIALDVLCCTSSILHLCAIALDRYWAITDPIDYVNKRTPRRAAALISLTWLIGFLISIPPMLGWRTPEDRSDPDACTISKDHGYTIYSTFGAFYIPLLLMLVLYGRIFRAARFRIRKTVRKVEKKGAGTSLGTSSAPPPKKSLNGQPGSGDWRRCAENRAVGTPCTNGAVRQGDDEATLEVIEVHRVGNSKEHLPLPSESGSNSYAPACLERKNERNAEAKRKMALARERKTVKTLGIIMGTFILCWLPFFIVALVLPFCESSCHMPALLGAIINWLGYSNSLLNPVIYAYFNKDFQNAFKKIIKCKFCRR
Protocol: Radioligand Binding Assay at Rat Hippocampal Membranes 5-HT1A Receptors. Binding experiments were performed according to a known method. Rats were killed by decapitation, the brain was quickly removed, and the hippocampus was dissected. […] The homogenate was centrifuged at 48000 g for 15 min at 4° C. The supernatant was discarded, and the pellet was resuspended in 25 mL of buffer, then preincubated for 10 min at 37° C. The homogenate was centrifuged at 48000 g for 15 min at 4° C. The supernatant was discarded, and the final pellet was stored at −80° C. until used. […] For competitive inhibition experiments various concentrations of drugs studied were incubated. […] Samples were incubated at 37° C. for 20 min and then filtered on Whatman GF/B glass microfiber filters.
Statistical Analysis. […] The value for the inhibition constant, Ki, was calculated by using the Cheng-Prusoff equation.

| Compound | Ki [1] [nM] | Ki (5-HT1A receptors) [nM] | 5-HT7R affinity (in words) [1] | 5-HT1A receptor affinity (in words) (5-HT1A receptors) |
| --- | --- | --- | --- | --- |
| COc1ccccc1N1CCN(CCCC(=O)NC2CCCc3ccccc32)CC1 (stereo not shown) [Compound 26, 4-(2-Methoxyphenyl)-N-(1,2,3,4-tetrahydronaphthalen-1-yl)-1-piperazinebutanamide] | 92 ± 12 | 245 ± 20 |  |  |
| NCCc1c[nH]c2ccc(C(N)=O)cc12 [5-CT, reference compound] | 0.51 ± 0.01 |  |  |  |
| COc1ccccc1N1CCN(CCCCCC(=O)NC2CCCc3c(OC)cccc32)CC1 (stereo not shown) [Compound 16] | 20 ± 2.5 | 24.5 ± 1.8 |  |  |
| COc1ccc2c(c1)CCCC2NC(=O)CCCCN1CCN(c2ccccc2OC)CC1 (stereo not shown) [Compound 18] | 43.1 ± 4.8 | 23.2 ± 2.3 |  |  |
| COc1ccccc1N1CCN(CCCCC(=O)NC2CCCc3cccc(OC)c32)CC1 (stereo not shown) [Compound 24] | 64 ± 12 | 72 ± 18 |  |  |
| COc1ccc2c(c1)C(NC(=O)CCCN1CCN(c3ccccc3OC)CC1)CCC2 (stereo not shown) [Compound 20] | 129 ± 5 | 160 ± 12 |  |  |
| COc1ccccc1N1CCN(CCC(=O)NC2CCCc3c(OC)cccc32)CC1 (stereo not shown) [Compound 6] | 269 ± 18 |  | moderate affinities | moderate affinities |
| COc1ccc(N2CCN(CCCCCC(=O)NC3CCCc4ccccc43)CC2)cc1 (stereo not shown) [Compound 38] | 2100 ± 150 |  | nearly devoid of 5-HT7R affinity |  |
| COc1ccc2c(c1)C(NC(=O)CCCCN1CCN(c3ccccc3OC)CC1)CCC2 (stereo not shown) [Compound 21] | 38.4 ± 4.6 | 78.9 ± 6.3 |  |  |
| COc1ccccc1N1CCN(CCCC(=O)NC2CCCc3c(OC)cccc32)CC1 (stereo not shown) [Compound 7, N-(5-methoxy-1,2,3,4-tetrahydronaphthalen-1-yl)-4-(2-methoxyphenyl)-1-piperazinebutanamide] | 35 ± 3.2 | 254 ± 65 | moderate affinities | moderate affinities |
| COc1ccccc1N1CCN(CCCCCC(=O)NC2CCCc3cccc(OC)c32)CC1 (stereo not shown) [Compound 25] | 31.4 ± 3.5 | 30 ± 2.6 |  |  |
| COc1ccc2c(c1)CCCC2NC(=O)CCCCCN1CCN(c2ccccc2OC)CC1 (stereo not shown) [Compound 19] | 30 ± 3.15 | 55 ± 8 |  |  |
| N#Cc1ccc(N2CCN(CCCCCC(=O)NC3CCCc4ccccc43)CC2)cc1 (stereo not shown) [Compound 40] | 1400 ± 120 |  | nearly devoid of 5-HT7R affinity |  |
| CC(=O)c1ccc(N2CCN(CCCCCC(=O)NC3CCCc4ccccc43)CC2)cc1 (stereo not shown) [Compound 42] | 2640 ± 130 |  | nearly devoid of 5-HT7R affinity |  |
| COc1ccccc1N1CCN(CCCC(=O)NC2CCCc3cccc(OC)c32)CC1 (stereo not shown) [Compound 23, N-(8-Methoxy-1,2,3,4-tetrahydronaphthalen-1-yl)4-(2-methoxyphenyl)-1-piperazinebutanamide] | 154 ± 35 | 441 ± 20 |  |  |
| COc1ccccc1N1CCN(CCCCC(=O)NC2CCCc3ccccc32)CC1 (stereo not shown) [Compound 27, 4-(2-Methoxyphenyl)-N-(1,2,3,4-tetrahydronaphthalen-1-yl)-1-piperazinepentanamide] | 6.05 ± 0.25 | 9 ± 0.7 |  |  |
| COc1ccc2c(c1)CCCC2NC(=O)CCCN1CCN(c2ccccc2OC)CC1 (stereo not shown) [Compound 17] | 186 ± 40 | 257 ± 25 |  |  |
| COc1ccc2c(c1)C(NC(=O)CCCCCN1CCN(c3ccccc3OC)CC1)CCC2 (stereo not shown) [Compound 22] | 41 ± 11 | 39 ± 6.5 |  |  |
| COc1ccccc1N1CCN(CCCCC(=O)NC2CCCc3c(OC)cccc32)CC1 (stereo not shown) [Compound 15] | 28.2 ± 4.2 | 54.4 ± 6.5 |  |  |
